Data published in patent US5766620A, “Buccal delivery of glucagon-like insulinotropic peptides” (TheraTech, Inc., priority 1995, dated 1998).
Where two headings read alike, the source gives them in different places.

Columns and labels:
[1] = clinical
Excerpt: This example describes a double-blind, placebo-controlled, crossover comparison with random assignment to treatment sequence. […] Inclusion criteria for the volunteers were normal glucose tolerance, weight within 22<BMI<26, informed consent to participate in the study, and age between 20 and 60 years. Exclusion criteria were impaired glucose tolerance (2-hour glucose tolerance test; OGTT), gastrointestinal symptoms, ongoing medication or illness, acute infection, abnormal laboratory variables (hemoglobin, hematocrit, leucocytes, creatinine, bilirubin, calcium, potassium, sodium, alkaline phosphatase, gamma-GT, SGOT, SGPT, cholesterol, and triglycerides), and blood pressure greater than 185 mmHg systolic and/or 90 mmHg diastolic.
Subject numbers were allotted to the subjects in the order in which they were enrolled in the study. The number allotted to each subject determined the treatment sequence received. Subjects receiving treatment sequence 1 were treated with drug followed by placebo, and subjects receiving treatment sequence 2 were treated with placebo followed by drug.
Subjects were instructed to fast the night before a treatment. At the clinic, the subjects were given either a drug-containing bilayer tablet or placebo. […] Standard safety variables were determined under fasting conditions before each experiment. Blood glucose was monitored frequently and glucose infusion was available in case of hypoglycemia (<2.5 mmol/L). […]
(§1) Blood samples were taken for pharmacokinetic analysis 10 minutes before application of the drug, and at 5, 10, 15, 20, 25, 30, 40, 50, 60, 75, 90, 120, 150, 180, 210, 240, and 270 minutes and 6 and 8 hours after application of the drug. […] The peptide content of bilayer tablet samples was also analyzed by HPLC. […]
The data summarized in FIG. 7 were analyzed by AUC to provide an estimate of relative bioavailability by buccal administration as compared to subcutaneous administration.

[2] = system: blood glucose; assay: Blood glucose after buccal bilayer tablet, double-blind placebo-controlled crossover; details: 400 μg buccal bilayer tablet, fasting healthy volunteers
Excerpt: This example describes a double-blind, placebo-controlled, crossover comparison with random assignment to treatment sequence. […] Inclusion criteria for the volunteers were normal glucose tolerance, weight within 22<BMI<26, informed consent to participate in the study, and age between 20 and 60 years. […]
Subject numbers were allotted to the subjects in the order in which they were enrolled in the study. The number allotted to each subject determined the treatment sequence received. […]
Subjects were instructed to fast the night before a treatment. […] Standard safety variables were determined under fasting conditions before each experiment. Blood glucose was monitored frequently and glucose infusion was available in case of hypoglycemia (<2.5 mmol/L). […]
as §1

[3] = intravenous infusion, fasting individuals, published data; cited from earlier work
[4] = Published subcutaneous administration of GLP-1 to fasting subjects (Nauck, FIG. 8); format: in vivo, human
Excerpt: A study by M. A. Nauck of subcutaneous administration of GLP-1 to fasting subjects illustrates changes in the pharmocokinetics with dose (FIG. 8). This could be due to changes in bioavailability with dose, changes in clearance with dose, or a combination of both effects.

[5] = after administration, 400 μg buccal bilayer tablet

Molecule | time of onset of sharp rise of plasma GLP-1(7-36)amide level [1, 5] [min] | time until which elevated GLP-1(7-36)amide levels remain in the blood [1, 5] | F rel ([1]; human, plasma, 400 ug) [%] | hypoglycemia [2] | clearance [3] [mL/min/kg] | bioavailability by subcutaneous administration relative to intravenous administration ([4]; subcutaneous) [%] | clearance ([4]; subcutaneous administration, regression analysis of all results)
CC[C@H](C)[C@H](NC(=O)[C@H](Cc1ccccc1)NC(=O)[C@H](CCC(=O)O)NC(=O)[C@H](CCCCN)NC(=O)[C@H](C)NC(=O)[C@H](C)NC(=O)[C@H](CCC(N)=O)NC(=O)CNC(=O)[C@H](CCC(=O)O)NC(=O)[C@H](CC(C)C)NC(=O)[C@H](Cc1ccc(O)cc1)NC(=O)[C@H](CO)NC(=O)[C@H](CO)NC(=O)[C@@H](NC(=O)[C@H](CC(=O)O)NC(=O)[C@H](CO)NC(=O)[C@@H](NC(=O)[C@H](Cc1ccccc1)NC(=O)[C@@H](NC(=O)CNC(=O)[C@H](CCC(=O)O)NC(=O)[C@H](C)NC(=O)[C@@H](N)Cc1c[nH]cn1)[C@@H](C)O)[C@@H](C)O)C(C)C)C(=O)N[C@@H](C)C(=O)N[C@@H](Cc1c[nH]c2ccccc12)C(=O)N[C@@H](CC(C)C)C(=O)N[C@H](C(=O)N[C@@H](CCCCN)C(=O)NCC(=O)N[C@@H](CCCNC(=N)N)C(N)=O)C(C)C [GLP-1(7-36)amide] | ≤ 5 | about 150 minutes | 27 | does not result in hypoglycemia |  |  | 
GLP-1: GLP-1 given intravenously (7-37 and 7-36 amide) or subcutaneously to fasting subjects in published studies used for comparison |  |  |  |  | ~15 | 38 | about 40 ml/min/kg
